According to ChEMBL document CHEMBL1177848, “Synthesis of novel 6,6a,7,8-tetrahydro-5H-naphtho[1,2-e]pyrimido[4,5-b][1,4]diazepines under microwave irradiation as potential anti-tumor agents” (2010):
Calls of active or inactive are those of the source. The calls are words filed in the database; no cut-off is given here.

Columns and labels:
TK-10 = test: Growth inhibition of human TK10 cells after 48 hrs by sulforhodamine B assay; format: functional; conditions: TK-10, 48 h
LOX IMVI = test: Growth inhibition of human LOXIMVI cells after 48 hrs by sulforhodamine B assay; format: functional
RXF 393 = test: Growth inhibition of human RXF393 cells at 1 uM after 48 hrs by sulforhodamine B assay; format: functional, cell-based
M14 = test: Growth inhibition of human M14 cells at 1 uM after 48 hrs by sulforhodamine B assay; format: functional, cell-based
SF-539 = test: Growth inhibition of human SF539 cells at 1 uM after 48 hrs by sulforhodamine B assay; format: functional, cell-based
IGROV-1 [1] = test: Growth inhibition of human IGROV1 cells after 48 hrs by sulforhodamine B assay; format: functional; conditions: IGROV-1, 48 h
RPMI-8226 [2] = test: Growth inhibition of human RPMI8226 cells after 48 hrs by sulforhodamine B assay; format: functional; conditions: RPMI-8226, 48 h
HT-29 = test: Growth inhibition of human HT-29 cells at 1 uM after 48 hrs by sulforhodamine B assay; format: functional, cell-based
OVCAR-3 = test: Growth inhibition of human OVCAR-3 cells after 48 hrs by sulforhodamine B assay; format: functional; conditions: OVCAR-3, 48 h
EKVX = test: Growth inhibition of human EKVX cells at 1 uM after 48 hrs by sulforhodamine B assay; format: functional, cell-based
UACC-62 = test: Growth inhibition of human UACC62 cells at 1 uM after 48 hrs by sulforhodamine B assay; format: functional, cell-based
NCI-H460 = test: Growth inhibition of human NCI-H460 cells after 48 hrs by sulforhodamine B assay; format: functional; conditions: NCI-H460, 48 h
DU-145 = test: Growth inhibition of human DU145 cells at 1 uM after 48 hrs by sulforhodamine B assay; format: functional, cell-based
NCI/ADR-RES = test: Growth inhibition of human NCI/ADR-RES cells after 48 hrs by sulforhodamine B assay; format: functional
NCI-H23 [3] = test: Growth inhibition of human NCI-H23 cells after 48 hrs by sulforhodamine B assay; format: functional; conditions: NCI-H23, 48 h
COLO 205 [4] = test: Growth inhibition of human COLO205 cells at 1 uM after 48 hrs by sulforhodamine B assay; format: functional, cell-based
Malme-3M = test: Growth inhibition of human MALME-3M cells at 1 uM after 48 hrs by sulforhodamine B assay; format: functional, cell-based
ACHN [5] = test: Growth inhibition of human ACHN cells after 48 hrs by sulforhodamine B assay; format: functional
OVCAR-4 = test: Growth inhibition of human OVCAR4 cells after 48 hrs by sulforhodamine B assay; format: functional; conditions: OVCAR-4, 48 h
HCT-15 [6] = test: Growth inhibition of human HCT15 cells after 48 hrs by sulforhodamine B assay; format: functional; conditions: HCT-15, 48 h
Hs-578T = test: Growth inhibition of human Hs 578T cells at 1 uM after 48 hrs by sulforhodamine B assay; format: functional, cell-based
NCI-H322M = test: Growth inhibition of human […] cells at 1 uM after 48 hrs by sulforhodamine B assay; format: functional, cell-based
SN12C = test: Growth inhibition of human SN12C cells after 48 hrs by sulforhodamine B assay; format: functional
SW-620 [7] = test: Growth inhibition of human SW620 cells at 1 uM after 48 hrs by sulforhodamine B assay; format: functional, cell-based
NCI-H23 [8] = test: Growth inhibition of human NCI-H23 cells at 1 uM after 48 hrs by sulforhodamine B assay; format: functional, cell-based
ACHN [9] = test: Growth inhibition of human ACHN cells at 1 uM after 48 hrs by sulforhodamine B assay; format: functional, cell-based
SK-MEL-5 = test: Growth inhibition of human SK-MEL-5 cells after 48 hrs by sulforhodamine B assay; format: functional; conditions: SK-MEL-5, 48 h
SW-620 [10] = test: Growth inhibition of human SW620 cells after 48 hrs by sulforhodamine B assay; format: functional; conditions: SW-620, 48 h
RPMI-8226 [11] = test: Growth inhibition of human RPMI8226 cells at 1 uM after 48 hrs by sulforhodamine B assay; format: functional, cell-based
KM12 = test: Growth inhibition of human KM12 cells at 1 uM after 48 hrs by sulforhodamine B assay; format: functional, cell-based
IGROV-1 [12] = test: Growth inhibition of human IGROV1 cells at 1 uM after 48 hrs by sulforhodamine B assay; format: functional, cell-based
MDA-MB-468 = test: Growth inhibition of human MDA-MB-468 cells after 48 hrs by sulforhodamine B assay; format: functional; conditions: MDA-MB-468, 48 h
HCT-116 = test: Growth inhibition of human HCT116 cells at 1 uM after 48 hrs by sulforhodamine B assay; format: functional, cell-based
COLO 205 [13] = test: Growth inhibition of human COLO205 cells after 48 hrs by sulforhodamine B assay; format: functional; conditions: COLO 205, 48 h
UACC-257 [14] = test: Growth inhibition of human UACC257 cells at 1 uM after 48 hrs by sulforhodamine B assay; format: functional, cell-based
UACC-257 [15] = test: Growth inhibition of human UACC257 cells after 48 hrs by sulforhodamine B assay; format: functional; conditions: UACC-257, 48 h
HCT-15 [16] = test: Growth inhibition of human HCT15 cells at 1 uM after 48 hrs by sulforhodamine B assay; format: functional, cell-based
HOP-92 = test: Growth inhibition of human HOP92 cells at 1 uM after 48 hrs by sulforhodamine B assay; format: functional, cell-based
MDA-MB-435 = test: Growth inhibition of human MDA-MB-435 cells at 1 uM after 48 hrs by sulforhodamine B assay; format: functional, cell-based
K562 = test: Growth inhibition of human K562 cells at 1 uM after 48 hrs by sulforhodamine B assay; format: functional, cell-based
HOP-62 = test: Growth inhibition of human HOP62 cells at 1 uM after 48 hrs by sulforhodamine B assay; format: functional, cell-based
OVCAR-8 = test: Growth inhibition of human OVCAR8 cells at 1 uM after 48 hrs by sulforhodamine B assay; format: functional, cell-based
SF-295 = test: Growth inhibition of human SF295 cells after 48 hrs by sulforhodamine B assay; format: functional; conditions: SF-295, 48 h
SR = test: Growth inhibition of human SR cells at 1 uM after 48 hrs by sulforhodamine B assay; format: functional, cell-based
NCI-H522 [17] = test: Growth inhibition of human NCI-H522 cells after 48 hrs by sulforhodamine B assay; format: functional; conditions: NCI-H522, 48 h
NCI-H522 [18] = test: Growth inhibition of human NCI-H522 cells at 1 uM after 48 hrs by sulforhodamine B assay; format: functional, cell-based
[19] = read-out: LC50 (the source's name)

SMILES: Nc1nc(N)c2c(n1)NC(c1ccc(F)cc1)C1CCc3ccccc3C1=N2 (stereo not given)
- GI50 (TK-10): 3.63 µM
- LC50 (50% lethal concentration) (TK-10): 50.9 µM
- GI50 (LOX IMVI): 3.98 µM
- LC50 (LOX IMVI): 43 µM
- growth inhibition (GI) (RXF 393): inactive
- growth inhibition (GI) (M14): inactive
- growth inhibition (GI) (SF-539): inactive
- GI50 (IGROV-1 [1]): 7.79 µM
- LC50 (concentration killing 50% of cells) (IGROV-1 [1]): 63.9 µM
- GI50 (RPMI-8226 [2]): 1.81 µM
- LC50 (RPMI-8226 [2]): 62.8 µM
- growth inhibition (GI) (HT-29): inactive
- GI50 (OVCAR-3): 4.15 µM
- LC50 (lethal concentration, 50% cell kill) (OVCAR-3): 43.2 µM
- growth inhibition (GI) (EKVX): inactive
- growth inhibition (GI) (UACC-62): inactive
- GI50 (NCI-H460): 3.76 µM
- LC50 (NCI-H460): 43.3 µM
- growth inhibition (GI) (DU-145): inactive
- GI50 (NCI/ADR-RES): 3.19 µM
- LC50 (concentration killing 50% of cells) (NCI/ADR-RES): 39.4 µM
- GI50 (NCI-H23 [3]): 4.06 µM
- LC50 (NCI-H23 [3]): 46.4 µM
- growth inhibition (GI) (COLO 205 [4]): inactive
- growth inhibition (GI) (Malme-3M): inactive
- GI50 (ACHN [5]): 4.96 µM
- LC50 (50% lethal concentration) (ACHN [5]): 42.2 µM
- GI50 (OVCAR-4): 3.98 µM
- LC50 (50% lethal concentration) (OVCAR-4): 50.2 µM
- GI50 (HCT-15 [6]): 3.99 µM
- LC50 (HCT-15 [6]): 43 µM
- growth inhibition (GI) (Hs-578T): inactive
- growth inhibition (GI) (NCI-H322M): inactive
- GI50 (SN12C): 7.8 µM
- CC50 (SN12C; [19]): 50.9 µM
- growth inhibition (GI) (SW-620 [7]): inactive
- growth inhibition (GI) (NCI-H23 [8]): inactive
- growth inhibition (GI) (ACHN [9]): inactive
- GI50 (SK-MEL-5): 0.609 µM
- LC50 (SK-MEL-5): 6.03 µM
- GI50 (SW-620 [10]): 4.87 µM
- LC50 (SW-620 [10]): 42.9 µM
- growth inhibition (GI) (RPMI-8226 [11]): inactive
- growth inhibition (GI) (KM12): inactive
- growth inhibition (GI) (IGROV-1 [12]): inactive
- GI50 (MDA-MB-468): 1.43 µM
- CC50 (MDA-MB-468; [19]): 33 µM
- growth inhibition (GI) (HCT-116): inactive
- GI50 (COLO 205 [13]): 1.62 µM
- LC50 (50% lethal concentration) (COLO 205 [13]): 80.7 µM
- growth inhibition (GI) (UACC-257 [14]): inactive
- GI50 (UACC-257 [15]): 5.37 µM
- CC50 (UACC-257 [15]; [19]): 43.3 µM
- growth inhibition (GI) (HCT-15 [16]): inactive
- growth inhibition (GI) (HOP-92): inactive
- growth inhibition (GI) (MDA-MB-435): inactive
- growth inhibition (GI) (K562): inactive
- growth inhibition (GI) (HOP-62): inactive
- growth inhibition (GI) (OVCAR-8): inactive
- GI50 (SF-295): 8.64 µM
- LC50 (50% lethal concentration) (SF-295): 59.7 µM
- growth inhibition (GI) (SR): inactive
- GI50 (NCI-H522 [17]): 5.66 µM
- LC50 (NCI-H522 [17]): 58 µM
- growth inhibition (GI) (NCI-H522 [18]): inactive
